Experiments:
[1] = test system: Aβ42 produced and secreted into the medium of human neuroblastoma SKNBE2 cells; assay: Cellular αlisa assay in SKNBE2 cells, Aβ42; assay type: cell-based; conditions: SKNBE2 cells expressing hAPP695, 18 hours incubation; for IC50: Homo sapiens, SKNBE2, 18 h, read-out: Cellular αlisa assay in SKNBE2 cells Aβ42 pIC50 (converted)
Protocol: (§1) Cellular αlisa Assay in SKNBE2 Cells In two αlisa assays the levels of Aβtotal and Aβ42 produced and secreted into the medium of human neuroblastoma SKNBE2 cells are quantified. The assay is based on the human neuroblastoma SKNBE2 expressing the wild type Amyloid Precursor Protein (hAPP695). […] Aβtotal and Aβ42 are measured by sandwich α[…] sandwich assay using biotinylated antibody AbN/25 attached to streptavidin coated beads and antibody Ab4G8 or cAb42/26 conjugated acceptor beads for the detection of Aβtotal and Aβ42 respectively. In the presence of Aβtotal or Aβ42, the beads come into close proximity. The excitation of the Donor beads provokes the release of singlet oxygen molecules that triggers a cascade of energy transfer in the Acceptor beads, resulting in light emission. Light emission is measured after 1 hour incubation (excitation at […] and emission at 615 nm). A best-fit curve is fitted by a minimum sum of squares method to the plot of % Controlmin versus compound concentration. […] [formula]

[2] = test system: Aβtotal produced and secreted into the medium of human neuroblastoma SKNBE2 cells; assay: Cellular αlisa assay in SKNBE2 cells, Aβtotal; assay type: cell-based; conditions: SKNBE2 cells expressing hAPP695, 18 hours incubation; for IC50: Homo sapiens, SKNBE2, 18 h, read-out: Cellular αlisa assay in SKNBE2 cells Aβtotal pIC50 (converted)
Protocol: as §1

[3] = target: T1, recombinant BACE1 protein (Homo sapiens, UniProt P56817); assay: Biochemical FRET based assay; conditions: recombinant BACE1 1 μg/ml, 120 min, room temperature, pH 5.0; for IC50: read-out: Biochemical FRET based assay pIC50 (converted)
T1 construct: recombinant BACE1 protein in a final concentration of 1 μg/ml
T1 sequence (P56817 46-501): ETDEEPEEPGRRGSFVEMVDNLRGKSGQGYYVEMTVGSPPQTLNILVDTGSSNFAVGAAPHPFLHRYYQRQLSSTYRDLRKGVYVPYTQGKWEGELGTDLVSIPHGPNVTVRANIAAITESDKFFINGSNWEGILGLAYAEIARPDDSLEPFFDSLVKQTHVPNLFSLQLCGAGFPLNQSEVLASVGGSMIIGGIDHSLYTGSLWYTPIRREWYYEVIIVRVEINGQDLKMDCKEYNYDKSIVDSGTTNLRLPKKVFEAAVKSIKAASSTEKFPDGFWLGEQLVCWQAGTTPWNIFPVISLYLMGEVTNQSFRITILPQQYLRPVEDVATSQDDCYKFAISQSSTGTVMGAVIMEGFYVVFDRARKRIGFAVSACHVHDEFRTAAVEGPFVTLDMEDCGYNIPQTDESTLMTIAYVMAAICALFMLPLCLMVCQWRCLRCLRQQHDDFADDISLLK
From the text: Biochemical FRET Based Assay This assay is a Fluorescence Resonance Energy Transfer Assay (FRET) based assay. The substrate for this assay is an APP derived 13 amino acids peptide that contains the 'Swedish' […] mutation of the amyloid precursor protein (APP) β-secretase cleavage site. […] Upon cleavage by BACE1, the fluorophore Mca is separated from the quenching group Dnp, restoring the full fluorescence yield of the donor. The increase in fluorescence is linearly related to the rate of proteolysis (Koike H et al. J Biochem. 1999, 126, 235-42). Briefly in a 384-well format recombinant BACE1 protein in a final concentration of 1 μg/ml is incubated for 120 minutes at room temperature with 10 μm substrate in incubation buffer (40 mM Citrate buffer pH 5.0, 0.04% PEG, 4% DMSO) in the absence or presence of compound. Next the amount of proteolysis is directly measured by fluorescence measurement at T=0 and T=120 (excitation at 320 nm and emission at 405 nm). […] [formula]

| IC50 [1] [nM] | IC50 [2] [nM] | melting point [°C] | IC50 [3] [nM] | Cellular αlisa assay in SKNBE2 cells Aβ42 pIC50 [1] | Cellular αlisa assay in SKNBE2 cells Aβtotal pIC50 [2] | Biochemical FRET based assay pIC50 [3] | SMILES |
| --- | --- | --- | --- | --- | --- | --- | --- |
| 25.7 | 20.9 | 272.6 | 309 | – | – | – | NC1=N[C@@](c2cc(NC(=O)c3ncc(Cl)cc3F)ccc2F)(C2CC2)c2ccnn2C1 [Compound 33, (R)—N-{3-[6-amino-4-cyclopropyl-4,7-dihydropyrazolo[1,5-a]pyrazin-4-yl]-4-fluorophenyl}-5-chloro-3-fluoropyridine-2-carboxamide] |
| – | – | 153.8 | – | – | – | – | COc1cccc(-c2cccc([C@@]3(C)N=C(N)Cn4nccc43)c2)c1 [Compound 7, (R)-4-(3′-methoxybiphenyl-3-yl)-4-methyl-4,7-dihydropyrazolo[1,5-a]pyrazin-6-amine] |
| – | – | 198 | – | – | – | – | CC1(c2cc(NC(=O)c3ncc(Cl)cc3Cl)ccc2F)N=C(N)Cn2nc(C(F)(F)F)cc21 (racemic) [Compound 27, rac-N-{3-[6-amino-4-methyl-2-(trifluoromethyl)-4,7-dihydropyrazolo[1,5-a]pyrazin-4-yl]-4-fluorophenyl}-3,5-dichloropyridine-2-carboxamide] |
| – | – | 89.3 | – | – | – | – | COc1cncc(-c2cccc(C3(C)N=C(N)Cn4nc(C(F)(F)F)cc43)c2)c1 (racemic) [Compound 21, rac-4-[3-(5-methoxypyridin-3-yl)-phenyl]-4-methyl-2-(trifluoromethyl)-4,7-dihydropyrazolo[1,5-a]pyrazin-6-amine] |
| – | – | – | 3630 | 5.5 | 5.64 | – | CC1(c2cc(-c3cncc(Cl)c3)ccc2F)N=C(N)Cn2nc(C(F)(F)F)cc21 (single isomer, unassigned) [Compound 25, (R*)-4-[5-(5-chloropyridin-3-yl)-2-fluorophenyl]-4-methyl-2-(trifluoromethyl)-4,7-dihydropyrazolo[1,5-a]pyrazin-6-amine] |
| – | – | 175.2 | – | – | – | – | CC1(c2cc(-c3cncc(Cl)c3)ccc2F)N=C(N)Cn2nc(C(F)(F)F)cc21 (racemic) [Compound 24, rac-4-[5-(5-chloropyridin-3-yl)-2-fluorophenyl]-4-methyl-2-(trifluoromethyl)-4,7-dihydropyrazolo[1,5-a]pyrazin-6-amine] |
| – | – | 199 | > 30200 | 5.41 | 5.44 | – | CC1(c2cc(NC(=O)c3ccc(Cl)cn3)ccc2F)N=C(N)Cn2nccc21 (single isomer, unassigned) [Compound 10, (S*)—N-[3-(6-Amino-4-methyl-4,7-dihydropyrazolo[1,5-a]pyrazin-4-yl)-4-fluorophenyl]-5-chloropyridine-2-carboxamide] |
| – | – | – | – | 5.53 | 5.48 | 4.98 | CC1(c2cc(-c3cncnc3)ccc2F)N=C(N)Cn2nccc21 (racemic) [Compound 16] |
| – | – | – | – | 7.11 | 7.19 | 6.51 | COc1cnc(C(=O)Nc2ccc(F)c(C3(C4CC4)N=C(N)Cn4nccc43)c2)cn1 (stereo not shown) [Compound 34] |
| – | – | – | – | 5.81 | 5.91 | 5.77 | CC1(c2cccc(-c3cccc(OC(F)(F)F)c3)c2)N=C(N)Cn2nccc21 (stereo not shown) [Compound 19] |
| 407 | 398 | – | 1070 | – | – | – | COc1cncc(-c2cccc(C3(C)N=C(N)Cn4nc(C(F)(F)F)cc43)c2)c1 (stereo not drawn) [Compound 21, rac-4-[3-(5-methoxypyridin-3-yl)-phenyl]-4-methyl-2-(trifluoromethyl)-4,7-dihydropyrazolo[1,5-a]pyrazin-6-amine] |
| – | – | – | – | 6.56 | 6.54 | <4.52 | COc1cnc(C(=O)Nc2ccc(F)c(C3(C)N=C(N)Cn4nc(C(F)(F)F)cc43)c2)cn1 (single isomer, unassigned) [Compound 32] |
| 457 | 355 | – | 3310 | – | – | – | CC1(c2cccc(-c3cncnc3)c2)N=C(N)Cn2nccc21 (racemic) [Compound 1, rac-4-methyl-4-(3-pyrimidin-5-ylphenyl)-4,7-dihydropyrazolo[1,5-a]pyrazin-6-amine] |
| – | – | – | – | 6.4 | 6.41 | 5.49 | COc1cncc(-c2cc(C3(C)N=C(N)Cn4nccc43)c(F)cc2F)c1 (racemic) [Compound 5] |
| – | – | – | – | 6.8 | 6.78 | 6.68 | COc1cnc(C(=O)Nc2ccc(F)c(C3(C)N=C(N)Cn4nc(C(F)(F)F)cc43)c2)cn1 (racemic) [Compound 30] |
| 5890 | 5370 | – | 7240 | – | – | – | CC1(c2cc(-c3cncc(Cl)c3)ccc2F)N=C(N)Cn2nc(C(F)(F)F)cc21 (stereo not drawn) [Compound 24, rac-4-[5-(5-chloropyridin-3-yl)-2-fluorophenyl]-4-methyl-2-(trifluoromethyl)-4,7-dihydropyrazolo[1,5-a]pyrazin-6-amine] |
| – | – | – | > 30200 | <5 | <5 | – | COc1cncc(-c2cccc(C3(C)N=C(N)Cn4nc(C(F)(F)F)cc43)c2)c1 (single isomer, unassigned) [Compound 23, (S*)-4-[3-(5-methoxypyridin-3-yl)-phenyl]-4-methyl-2-(trifluoromethyl)-4,7-dihydropyrazolo[1,5-a]pyrazin-6-amine] |
| – | – | – | 91.2 | 6.99 | 7.1 | – | CC1(c2cc(NC(=O)c3ncc(Cl)cc3Cl)ccc2F)N=C(N)Cn2nc(C(F)(F)F)cc21 (single isomer, unassigned) [Compound 28, (R*)—N-{3-[6-amino-4-methyl-2-(trifluoromethyl)-4,7-dihydropyrazolo[1,5-a]pyrazin-4-yl]-4-fluorophenyl}-3,5-dichloropyridine-2-carboxamide] |
| – | – | – | – | 6.93 | 6.94 | 6.05 | COc1cncc(-c2cccc(C3(C)N=C(N)Cn4nccc43)c2)c1 (stereo not shown) [Compound 9] |
| 1070 | 1050 | 207 | 8710 | – | – | – | CC1(c2cc(-c3cncnc3)c(F)cc2F)N=C(N)Cn2nccc21 (racemic) [Compound 4, rac-4-(2,4-difluoro-5-pyrimidin-5-yl-phenyl)-4-methyl-4,7-dihydropyrazolo[1,5-a]pyrazin-6-amine] |

| SMILES | IC50 [1] [nM] | IC50 [2] [nM] | melting point [°C] | IC50 [3] [nM] | Cellular αlisa assay in SKNBE2 cells Aβ42 pIC50 [1] | Cellular αlisa assay in SKNBE2 cells Aβtotal pIC50 [2] | Biochemical FRET based assay pIC50 [3] |
| --- | --- | --- | --- | --- | --- | --- | --- |
| CC1(c2cc(-c3ccccc3)c(F)cc2F)N=C(N)Cn2nccc21 (racemic) [Compound 12] | – | – | – | – | 5.58 | 5.67 | 4.88 |
| CC1(c2cc(-c3cccc(C#N)c3)c(F)cc2F)N=C(N)Cn2nccc21 (racemic) [Compound 18] | – | – | – | – | 5.76 | 5.67 | 4.75 |
